Measured values from publication PMC11638278, “Ascorbate: a forgotten component in the cytotoxicity of Cu(II) ATCUN peptide complexes” (Journal of Biological Inorganic Chemistry, 2024).

Tested on: AGS cells (gastric adenocarcinoma)
Assay: MTT cell viability assay on AGS cells
Format: cell-based
Conditions: AscH− 100 µM alone (negative control), 48 h
Experimental: The complexes 1–3, Cu-GGH, CuCl2 and the peptides a-c, GGH alone were tested on three different cancer cell lines towards their cytotoxic activity: HeLa cells (cervical adenocarcinoma), AGS and NCI-N87 cells (both gastric adenocarcinoma). The cells were grown and treated with compounds in RPMI Medium 1640 (1×) supplemented with 10% fetal calf serum in a humidified incubator with 5% CO2 at 37 °C. MTT cell viability assays were carried out at two concentrations (100 and 250 µM) at least in duplicate (in AGS cells additionally in two independent experiments). The Annexin V-FITC apoptosis assay was carried out at a compound concentration of 500 µM in duplicate in two independent experiments.
For the MTT cell viability assay (Sigma Aldrich), cells were seeded at 10 000 (HeLa and AGS) and 20 000 (NCI-N87) cells/well in 96-well plates and left to settle for 24 h. […] Quantification of the formazan was ensured by a Spectramax M5 (Molecular Devices) microplate reader at an absorbance of 470 nm to determine the percentage of cell-growth inhibition of each sample (with compound) relative to a negative control (no compound). […]

## O=C1O[C@H]([C@@H](O)CO)C(O)=C1O [AscH^−, sodium ascorbate]
  cytotoxicity of the additive alone: does not show significant cytotoxicity
